Results taken from patent US9828366B2, “Bicyclic derivatives and pharmaceutical composition including the same” (HANMI PHARM. CO., LTD., priority 2014, dated 2017).

tested on: C57BL/6 male mice; assay: Urinary glucose excretion test (UGE test); type: in vivo; details: 3 mg/kg oral (Examples 13 to 38), 2 g/kg glucose after 30 minutes, urine collected for 24 hours
Protocol: The pharmaceutical efficacies of the compounds prepared in the Examples were investigated by a urinary glucose excretion test using C57BL/6 male mice (8-week-old, prepared and supplied from Orient Chemical Co. Ltd.).
Two mice were used in each group. The mice were fasted for 16 hours, and the compound of each of the Examples [10 mg/kg of the compound of Examples 1 to 12; and 3 mg/kg of the compound of Examples 13 to 38] was dissolved in a vehicle [a mixed solution of 5% 1-methyl-2-pyrrolidinone, 20% PEG, and 75% 20 mM sodium diphosphate], and orally administered to the mice. After 30 minutes, 2 g/kg of glucose was orally administered to the mice in all the groups. Thereafter, the mice were immediately put into a metabolic cage, and urine was collected for 24 hours. The mice were freely fed an hour after the administration of glucose.
The results obtained from the test, that is, the results obtained by measuring urinary glucose excretion in the C57BL/6 male mice according to the compounds of the Examples, are listed in Table 5.

Row | Structure (SMILES) | UGE
1 | CCOc1ccc(Cc2cc([C@@H]3O[C@H](CO)[C@@H](O)[C@H](O)[C@H]3O)cc3c2CCC3)cc1 [Example 13, (2S,3R,4R,5S,6R)-2-(7-(4-ethoxybenzyl)-2,3-dihydro-1H-inden-5-yl)-6-(hydroxymethyl)tetrahydro-2H-pyran-3,4,5-triol] | 1.7 mg/20 g/24 hr
2 | CCCc1ccc(Cc2cc([C@@H]3O[C@H](CO)[C@@H](O)[C@H](O)[C@H]3O)cc3c2CCC3)cc1 [Example 17, (2R,3S,4R,5R,6S)-2-(hydroxymethyl)-6-(7-(4-propylbenzyl)-2,3-dihydro-1H-inden-5-yl)tetrahydro-2H-pyran-3,4,5-triol] | 1.0 mg/20 g/24 hr
3 | CC(C)c1ccc(Cc2cc([C@@H]3O[C@H](CO)[C@@H](O)[C@H](O)[C@H]3O)cc3c2CCC3)cc1 [Example 18, (2R,3S,4R,5R,6S)-2-(hydroxymethyl)-6-(7-(4-isopropylbenzyl)-2,3-dihydro-1H-inden-5-yl)tetrahydro-2H-pyran-3,4,5-triol] | 7.0 mg/20 g/24 hr
4 | CCOc1ccc(Cc2cc([C@@H]3O[C@H](CO)[C@@H](O)[C@H](O)[C@H]3O)cc3c2CCC3)cc1F [Example 20, (2S,3R,4R,5S,6R)-2-(7-(4-ethoxy-3-fluorobenzyl)-2,3-dihydro-1H-inden-5-yl)-6-(hydroxymethyl)tetrahydro-2H-pyran-3,4,5-triol] | 0.6 mg/20 g/24 hr
5 | CCOc1ccc(Cc2cc([C@@H]3O[C@H](CO)[C@@H](O)[C@H](O)[C@H]3O)cc3c2CCC3)c(F)c1 [Example 21, (2S,3R,4R,5S,6R)-2-(7-(4-ethoxy-2-fluorobenzyl)-2,3-dihydro-1H-inden-5-yl)-6-(hydroxymethyl)tetrahydro-2H-pyran-3,4,5-triol] | 4.2 mg/20 g/24 hr
6 | Cc1ccc(Cc2cc([C@@H]3O[C@H](CO)[C@@H](O)[C@H](O)[C@H]3O)cc3c2CCC3)cc1F [Example 25, (2S,3R,4R,5S,6R)-2-(7-(3-fluoro-4-methylbenzyl)-2,3-dihydro-1H-inden-5-yl)-6-(hydroxymethyl)tetrahydro-2H-pyran-3,4,5-triol] | 5.5 mg/20 g/24 hr
7 | Cc1ccc(Cc2cc([C@@H]3O[C@H](CO)[C@@H](O)[C@H](O)[C@H]3O)cc3c2CCC3)c(F)c1 [Example 26, (2S,3R,4R,5S,6R)-2-(7-(2-fluoro-4-methylbenzyl)-2,3-dihydro-1H-inden-5-yl)-6-(hydroxymethyl)tetrahydro-2H-pyran-3,4,5-triol] | 4.8 mg/20 g/24 hr

same assay, conditions: 10 mg/kg oral (Examples 1 to 12), 2 g/kg glucose after 30 minutes, urine collected for 24 hours

Row | Structure (SMILES) | UGE
8 | CCOc1ccc(Cc2cc([C@@H]3O[C@H](CO)[C@@H](O)[C@H](O)[C@H]3O)cc3c2OCC3)cc1 [Example 1, (2S,3R,4R,5S,6R)-2-(7-(4-ethoxybenzyl)-2,3-dihydrobenzofuran-5-yl)-6-hydroxymethyl-tetrahydro-2H-pyran-3,4,5-triol] | 1.2 mg/20 g/24 hr
9 | CCc1ccc(Cc2cc([C@@H]3O[C@H](CO)[C@@H](O)[C@H](O)[C@H]3O)cc3c2OCC3)cc1 [Example 2, (2S,3R,4R,5S,6R)-2-(7-(4-ethylbenzyl)-2,3-dihydrobenzofuran-5-yl)-6-hydroxymethyl-tetrahydro-2H-pyran-3,4,5-triol] | 8.3 mg/20 g/24 hr
10 | CCCc1ccc(Cc2cc([C@@H]3O[C@H](CO)[C@@H](O)[C@H](O)[C@H]3O)cc3c2OCC3)cc1 [Example 3, (2R,3S,4R,5R,6S)-2-hydroxymethyl-6-(7-(4-n-propylbenzyl)-2,3-dihydrobenzofuran-5-yl)-tetrahydro-2H-pyran-3,4,5-triol] | 3.7 mg/20 g/24 hr
11 | OC[C@H]1O[C@@H](c2cc3c(c(Cc4ccc(C(F)(F)F)cc4)c2)OCC3)[C@H](O)[C@@H](O)[C@@H]1O [Example 4, (2R,3S,4R,5R,6S)-2-hydroxymethyl-6-(7-(4-trifluoromethylbenzyl)-2,3-dihydrobenzofuran-5-yl)tetrahydro-2H-pyran-3,4,5-triol] | 4.6 mg/20 g/24 hr
12 | OC[C@H]1O[C@@H](c2cc3c(c(Cc4ccc(OC(F)(F)F)cc4)c2)OCC3)[C@H](O)[C@@H](O)[C@@H]1O [Example 5, (2R,3S,4R,5R,6S)-2-hydroxymethyl-6-(7-(4-trifluoromethoxybenzyl)-2,3-dihydrobenzofuran-5-yl)tetrahydro-2H-pyran-3,4,5-triol] | 3.7 mg/20 g/24 hr
13 | OC[C@H]1O[C@@H](c2cc3c(c(Cc4ccc(F)cc4)c2)OCC3)[C@H](O)[C@@H](O)[C@@H]1O [Example 6, (2S,3R,4R,5S,6R)-2-(7-(4-fluorobenzyl)-2,3-dihydrobenzofuran-5-yl)-6-(hydroxymethyl)tetrahydro-2H-pyran-3,4,5-triol] | 3.9 mg/20 g/24 hr
14 | OC[C@H]1O[C@@H](c2cc3c(c(Cc4ccc5c(c4)OCCO5)c2)OCC3)[C@H](O)[C@@H](O)[C@@H]1O [Example 7, (2S,3R,4R,5S,6R)-2-(7-((2,3-dihydrobenzo[b][1,4]dioxin-6-yl)methyl)-2,3-dihydrobenzofuran-5-yl)-6-(hydroxymethyl)tetrahydro-2H-pyran-3,4,5-triol] | 2.8 mg/20 g/24 hr
15 | OC[C@H]1O[C@@H](c2cc3c(c(Cc4ccc(OCC5CC5)cc4)c2)OCC3)[C@H](O)[C@@H](O)[C@@H]1O [Example 8, (2S,3R,4R,5S,6R)-2-(7-(4-(cyclopropylmethoxy)benzyl)-2,3-dihydrobenzofuran-5-yl)-6-(hydroxymethyl)tetrahydro-2H-pyran-3,4,5-triol] | 4.3 mg/20 g/24 hr
16 | CCOc1ccc(Cc2cc([C@@H]3O[C@H](CO)[C@@H](O)[C@H](O)[C@H]3O)cc3c2OCC3)cc1F [Example 9, (2S,3R,4R,5S,6R)-2-(7-(4-ethoxy-3-fluorobenzyl)-2,3-dihydrobenzofuran-5-yl)-6-(hydroxymethyl)tetrahydro-2H-pyran-3,4,5-triol] | 4.6 mg/20 g/24 hr
17 | CCOc1ccc(Cc2cc([C@@H]3O[C@H](CO)[C@@H](O)[C@H](O)[C@H]3O)cc3c2OCC3)c(F)c1 [Example 10, (2S,3R,4R,5S,6R)-2-(7-(4-ethoxy-2-fluorobenzyl)-2,3-dihydrobenzofuran-5-yl)-6-(hydroxymethyl)tetrahydro-2H-pyran-3,4,5-triol] | 3.2 mg/20 g/24 hr
18 | OC[C@H]1O[C@@H](c2cc3c(c(Cc4ccc(O)cc4)c2)OCC3)[C@H](O)[C@@H](O)[C@@H]1O [Example 11, (2S,3R,4R,5S,6R)-2-(7-(4-hydroxybenzyl)-2,3-dihydrobenzofuran-5-yl)-6-(hydroxymethyl)tetrahydro-2H-pyran-3,4,5-triol] | 3.0 mg/20 g/24 hr
19 | CS(=O)(=O)CCCOc1ccc(Cc2cc(C3O[C@H](CO)[C@@H](O)[C@H](O)[C@H]3O)cc3c2OCC3)cc1 (stereo partly shown) [Example 12] | 0 mg/20 g/24 hr
